According to ChEMBL document CHEMBL2074459, “Coordinate induction by antioxidants of UDP-glucuronosyltransferase UGT1A6 and the apical conjugate export pump MRP2 (multidrug resistance protein 2) in Caco-2 cells” (Biochem Pharmacol, 2000):

Target: ATP-binding cassette sub-family C member 2 (Homo sapiens, UniProt Q92887)
Assay: TP_TRANSPORTER: Immunoblot analysis in Caco-2 cells
Assay type: functional, cell-based

ATP-binding cassette sub-family C member 2, sequence (Q92887 whole entry): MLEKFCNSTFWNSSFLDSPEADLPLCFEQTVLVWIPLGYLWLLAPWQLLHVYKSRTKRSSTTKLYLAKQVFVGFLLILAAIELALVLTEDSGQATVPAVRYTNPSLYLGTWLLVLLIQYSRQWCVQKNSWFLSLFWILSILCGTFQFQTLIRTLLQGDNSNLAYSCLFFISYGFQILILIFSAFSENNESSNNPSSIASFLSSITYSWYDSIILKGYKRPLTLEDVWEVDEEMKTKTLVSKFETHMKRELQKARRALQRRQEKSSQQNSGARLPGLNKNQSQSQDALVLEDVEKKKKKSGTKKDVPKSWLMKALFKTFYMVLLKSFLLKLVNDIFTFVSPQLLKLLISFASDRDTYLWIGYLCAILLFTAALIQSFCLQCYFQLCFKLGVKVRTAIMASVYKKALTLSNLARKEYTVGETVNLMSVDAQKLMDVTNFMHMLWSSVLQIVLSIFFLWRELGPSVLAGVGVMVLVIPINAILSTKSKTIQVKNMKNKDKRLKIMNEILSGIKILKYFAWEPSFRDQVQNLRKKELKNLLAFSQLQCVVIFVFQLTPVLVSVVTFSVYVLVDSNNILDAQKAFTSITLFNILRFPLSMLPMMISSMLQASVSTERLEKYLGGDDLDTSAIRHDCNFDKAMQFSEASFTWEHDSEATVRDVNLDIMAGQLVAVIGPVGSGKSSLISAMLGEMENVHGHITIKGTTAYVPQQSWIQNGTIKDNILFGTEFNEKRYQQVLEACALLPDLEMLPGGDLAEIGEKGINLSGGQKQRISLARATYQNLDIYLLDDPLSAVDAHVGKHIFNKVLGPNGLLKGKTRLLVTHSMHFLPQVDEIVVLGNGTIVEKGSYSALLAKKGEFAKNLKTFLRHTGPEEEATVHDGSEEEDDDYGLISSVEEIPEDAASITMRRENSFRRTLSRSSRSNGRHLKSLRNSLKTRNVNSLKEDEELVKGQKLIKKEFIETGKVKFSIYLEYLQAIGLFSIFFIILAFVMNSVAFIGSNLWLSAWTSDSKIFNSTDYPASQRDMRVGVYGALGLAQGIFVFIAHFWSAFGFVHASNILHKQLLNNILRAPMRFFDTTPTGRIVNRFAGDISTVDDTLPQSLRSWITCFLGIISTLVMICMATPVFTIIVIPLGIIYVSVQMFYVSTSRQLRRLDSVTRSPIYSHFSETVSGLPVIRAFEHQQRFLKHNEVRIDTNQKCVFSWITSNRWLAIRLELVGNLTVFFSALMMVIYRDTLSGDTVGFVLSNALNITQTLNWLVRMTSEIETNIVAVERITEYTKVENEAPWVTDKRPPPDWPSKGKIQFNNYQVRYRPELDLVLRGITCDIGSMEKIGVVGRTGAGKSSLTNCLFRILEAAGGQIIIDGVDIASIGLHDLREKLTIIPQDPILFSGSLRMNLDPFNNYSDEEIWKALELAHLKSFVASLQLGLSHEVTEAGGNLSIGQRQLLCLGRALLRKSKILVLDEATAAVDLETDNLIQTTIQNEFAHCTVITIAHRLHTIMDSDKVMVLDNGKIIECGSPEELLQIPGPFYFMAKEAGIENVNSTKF

Which Activity does the source give for `O=c1c(O)c(-c2ccc(O)c(O)c2)oc2cc(O)cc(O)c12` [QUERCETIN] here?
Its Activity is “inducer [+]”.
